In US20130331326A1, “METHOD OF INDUCING HEMATOPOIETIC RECONSTRUCTION” (DUKE UNIVERSITY, priority 2011, published 2013):
“Also recorded” adds a separate entry of the source.

Columns and labels:
EGFR = test: Phosphorylation of EGFR-Y845 in BM KSL cells in culture; format: cell-based, mouse; conditions: wild type BM KSL cells treated with EGF in vitro (20 ng/mL, 15 minutes)
BM KSL cells [1] = test: Cell cycle analysis (Ki67/7-AAD) of irradiated BM KSL cells; format: cell-based, mouse
Procedure: Cell apoptosis and necrosis were analyzed by flow cytometry according to manufacturer's protocols with Annexin V-FITC and 7-AAD staining (BD, San Jose, Calif.). […] Cells were fixed and permeabilized with Fix Buffer I and Perm Buffer III (BD), and then stained with mouse anti-phospho-AKT-S473 PE (BD) or isotype control. Cell cycle analysis was performed by flow cytometric analysis modified from previous reports (Jordan et al, Exp. Hematol. 24:1347-1355 (1996), Chute et al, Hum. Gene Ther. 11:2515-2528 (2000), Sungartz et al, Blood 119:1308-1309 (2012)). Briefly, cells were fixed and permeabilized with 0.25% Saponin (Calbiochem, La Jolla, Calif.), 2.5% paraformaldehyde, 2% FBS in 1×PBS, and then labeled with Ki67-FITC and 7-AAD (BD). BM lin^− cells from VavCre;EGFR^+/+ or VavCre;EGER^fl/fl were cultured with TSF or TSF+10 μM erlotinib, or TSF following 300 cGy for 72 hours, and then collected for total cell counts and CFCs analysis.

DNA-PK = test: Phosphorylation of DNA-PK in irradiated BM lin- cells; format: cell-based, mouse; conditions: 300 cGy BM lin- cells, EGF 20 ng/ml, vs cytokines alone
Procedure: The phosphorylation of the T2647 domain of DNA-PK was measured using immunofluorescence and flow cytometric analysis. […] Cells were separated onto a glass slide, fixed with 4% paraformaldehyde and permeabilized with 0.3% Triton-X. Cells were stained with rabbit polyclonal DNA-PK or rabbit IgG (Abeam, Cambridge, Mass.) and donkey anti-rabbit Alexafluor 488 antibody and counterstained with Hoechst 33342 (Life Technologies, Grand Island, N.Y.).

[2] = tested on: BM hematopoietic stem and progenitor cells; test: Hematopoietic regeneration in C57B16 mice after 700 cGy TBI (progenitor assays, competitive repopulation); format: in vivo, mouse
Procedure: BM cells were collected into PBS (Cellgro, Manassas, Va.) with 10% fetal bovine serum (Hyclone, Logan, Utah) and 1% penicillin/streptomycin (GIBCO, Grand Island, N.Y.). Viable BM cells were quantified using Trypan Blue Stain (Lonza, Basel, Switzerland) to exclude apoptotic and dead cells. Cells were then incubated with anti-c-kit, anti-Sca-1, anti-lineage cocktail, anti-CD41, anti-CD48, and anti-CD150 antibodies (Biolegend and eBiosciences, San Diego, Calif.; BD, San Jose, Calif.) to measure ckit^+sca-1^+lin^− (KSL) progenitor cells or CD150′CD41^−CD48^−KSL (SLAM/KSL) as previously described (Kiel et al, Cell 121:1109-1121 (2005)). Colony forming cells (CFCs) and CFU-S12 assays were also performed to measure functional hematopoietic stem/progenitor cell content. For CFCs, either whole BM or cultured lineage−cells, or KSL cells were plated onto methylcellulose (StemCell Technologies, Vancouver, BC, Canada), and colonies were scored on day 14. 1×10^5 BM or 2×10^5 cells were collected from donor mice and injected via tail vein into recipient C57B16 mice that had been given 950 cGy TBI. At day +12 post-injection, spleens from recipient mice were harvested and stained with Bouin's fixative solution (Ricca Chemical Company, Arlington, Tex.), and colonies were counted as previously described (Till and MeRadiat. Res. 14:213-222 (1961)). Complete blood counts were performed on a HemaVet 950 (Drew Scientific, Dallas, Tex.).
Competitive repopulation assays were also performed using donor C57B16 mice (CD45.2^+) that had been irradiated with 700 cGy TBI and gavaged daily with 10 μg/G erlotinib (Genentech, San Francisco, Calif.) or 150 μl water beginning on day 0 and continued through day +14. Donor BM cells were injected via tail vein into recipient B6.SJL mice (CD45.1^+) at a dose of 5×10^5 cells with a competing dose of host 1×10^5 BM MNCs. Tie2Cre;Bak1^−/−;Bax^FL/− mice were gavaged daily with 10 μg/G erlotinib or water starting day −3 and given 300 cGy TBI on day 0. Erlotinib administration continued until the timepoint of donor BM cell collection and analysis. Tie2Cre;Bak1^−/−;Bax^FL/− BM cells were injected via tail vein into recipient CD45.1^+ mice at a cell dose of 3×10^5 cells with a competing dose of host 1×10^5 CD45.1^+ cells. Multilineage hematopoietic reconstitution was measured in the PB of recipient mice by flow cytometry at 4, 8, and 12 weeks post-transplant. For survival studies with erlotinib administration, C57B16 mice were exposed to 700 cGy and then given 10 μg/G erlotinib or water starting day −3 and continuing daily through day +14.
Ten micrometer sections were cut using they CryoJane tape system (Instrumedics Inc, Hackensack, N.J., USA). Femurs were stained with hematoxylin and eosin or anti-mouse endothelial cell antibody (MECA-32) as previously described (Salter et al, Blood 113:2104-2107 (2009)) to assess BM cellularity and the BM vasculature after irradiation. Images were obtained using an Axiovert 200 microscope (Carl Zeiss Microscopy, Thornwood, N.Y.) or a Leica SP5 confocal microscope (Leica Microsystems Inc, Buffalo Grove, Ill.). Adobe Photoshop software (version 9.0.2, Adobe Systems, San JoSe, Calif.) was used to quantify positive signal as a measure of spatial distribution in the fields (Lehr et al, J. Histochem. Cytochem. 45:1559-1565 (1997), Lehr et al, J. Histochem. Cytochem. 47:119-126 (1999)).

BM KSL cells [3] = test: Culture of non-irradiated BM KSL cells with TSF with and without EGF; format: cell-based, mouse; conditions: TSF + 20 ng/ml EGF, 7 days, vs cytokines alone
[4] = 300 cGy, cytokines + EGF, 72 hours of culture
[5] = 700 cGy TBI, EGF 0.5 ug/G IP daily x 7 days, day +7

**Q.** Which results are given for “EGF: epidermal growth factor; recombinant EGF (R&D Systems)”?
**A.** EGFR signaling as measured by EGFR phosphorylation (EGFR): induced EGFR signaling; cycling of BM KSL cells from Tie2Cre;Bak1-/-;BaxFl/- mice (BM KSL cells [1]; 300 cGy in vitro, TSF + 20 ng/ml EGF, 72 hours, vs TSF): significantly decreased G0 cells and increased G2/S/M cells; also recorded: significantly increased the cycling; KSL cells in G1 (BM KSL cells [1]; [4]): 51%; KSL cells in G2/S/M phase (BM KSL cells [1]; [4]): 31%; KSL cells remaining in G0 (BM KSL cells [1]; [4]): 17%; phospho-DNA-PK levels by immunofluorescence staining (DNA-PK; 15 minutes): increased phospho-DNA-PK; also recorded: significant increase; phospho-DNA-PK levels by FACS analysis (DNA-PK; 1 hour): increased phospho-DNA-PK; also recorded: significant increase; increased BM KSL progenitor cells vs saline [2, 5]: 6 fold; increased BM cells vs saline [2, 5]: 2 fold; increased CFCs vs saline [2, 5]: 7 fold; increased CFU-S12 vs saline [2, 5]: 8 fold; BM cellularity ([2]; 700 cGy TBI, EGF daily x 7 days, day +7): preserved BM cellularity; also recorded: largely preserved; BM HSC content by competitive repopulation assay ([2]; 700 cGy TBI, EGF x 7 days, BM at day +7, vs saline): significantly increased; multilineage reconstitution of myeloid cells, B cells and T cells in recipients ([2]; BM from irradiated EGF-treated mice, 12 weeks post-transplant, vs saline): increased multilineage reconstitution; repopulating cell content (donor stem cell engraftment in recipients) ([2]; Example 1, BM at day +7 or day +14 following 700 cGy TBI, EGF vs saline): significantly higher repopulating cell content; recovery of bone marrow stem and progenitor cells ([2]; Example 1, recombinant EGF via intraperitoneal injection into irradiated wild type mice, vs controls): marked acceleration; engraftment in secondary transplant recipients at 12 weeks ([2]; donor BM collected at day +7 following TBI, data not shown): no significant engraftment; donor cell repopulation in secondary transplant recipients at 12 weeks ([2]; donor BM collected at day +14 following TBI from EGF-treated mice, vs saline): significantly increased; also recorded: markedly increased donor cell repopulation; expansion of BM KSL cells and CFU-S12 (BM KSL cells [3]): increased significantly; also recorded: significant expansion
